# Values joined by “and” are separate entries in the source; they are usually repeats but may differ in a detail not shown here. Equal entries are not always repeated. Toxic doses and inconclusive results are not listed.
# Test system: L1210 leukemia ip in BDF1 mice, survival T/C
# Experiment: NCI In Vivo Anticancer Drug Screen. Data for tumor model L1210 Leukemia (intraperitoneal) in B6D2F1 (BDF1) mice
# Details: endpoint: mean survival time, higher = longer survival
# How it was run: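 Tumor cells were implanted, animals were treated, and survival was followed. The result divides the treated measurement by the vehicle-control measurement.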
# [1] = dose: 100.0 mg/kg/injection, schedule: Q01DX009 (ip), vehicle: Klucel (hydroxypropylcellulose) (HPC)
# [2] = dose: 200.0 mg/kg/injection, schedule: Q01DX009 (ip), vehicle: Klucel (hydroxypropylcellulose) (HPC)
# [3] = dose: 100.0 mg/kg/injection, schedule: Q01DX001 (ip), vehicle: saline
# [4] = dose: 200.0 mg/kg/injection, schedule: Q01DX001 (ip), vehicle: saline
# [5] = dose: 400.0 mg/kg/injection, schedule: Q01DX001 (ip), vehicle: saline
# [6] = dose: 100.0 mg/kg/injection, schedule: Q01DX001 (ip), vehicle: carboxymethylcellulose (CMC)
# [7] = dose: 200.0 mg/kg/injection, schedule: Q01DX001 (ip), vehicle: carboxymethylcellulose (CMC)
# [8] = dose: 100.0 mg/kg/injection, schedule: Q04DX003 (ip), vehicle: saline with Tween-80
structure (smiles),measurement,setting,value
C/C(=C1\C(=O)Nc2ccccc21)c1cccnc1,T/C,"dose: 25.0 mg/kg/injection, schedule: Q01DX Z (ip), vehicle: carboxymethylcellulose (CMC)",103 % of control
same,T/C,"dose: 50.0 mg/kg/injection, schedule: Q01DX Z (ip), vehicle: carboxymethylcellulose (CMC)",96 % of control
same,T/C,"dose: 100.0 mg/kg/injection, schedule: Q01DX Z (ip), vehicle: carboxymethylcellulose (CMC)",103 % of control
same,T/C,"dose: 200.0 mg/kg/injection, schedule: Q01DX Z (ip), vehicle: carboxymethylcellulose (CMC)",111 % of control
CC(C)OC(=O)Oc1cccc2c1C(=O)c1ccccc1C2=O,T/C,[1],91 % of control
same,T/C,"dose: 100.0 mg/kg/injection, schedule: Q04DX003 (ip), vehicle: Klucel (hydroxypropylcellulose) (HPC)",97 % of control
same,T/C,[2],91 % of control
same,T/C,"dose: 200.0 mg/kg/injection, schedule: Q04DX003 (ip), vehicle: Klucel (hydroxypropylcellulose) (HPC)",93 % of control
same,T/C,"dose: 400.0 mg/kg/injection, schedule: Q04DX003 (ip), vehicle: Klucel (hydroxypropylcellulose) (HPC)",104 % of control
NC(=O)c1nc(C(F)(F)F)[nH]c1C(N)=O,T/C,"dose: 50.0 mg/kg/injection, schedule: Q01DX009 (ip), vehicle: water",96 % of control
same,T/C,"dose: 100.0 mg/kg/injection, schedule: Q01DX009 (ip), vehicle: water",102 % of control
same,T/C,"dose: 100.0 mg/kg/injection, schedule: Q04DX003 (ip), vehicle: water",100 % of control
same,T/C,"dose: 200.0 mg/kg/injection, schedule: Q01DX009 (ip), vehicle: water",109 % of control
same,T/C,"dose: 200.0 mg/kg/injection, schedule: Q04DX003 (ip), vehicle: water",100 % of control
same,T/C,"dose: 300.0 mg/kg/injection, schedule: Q01DX009 (ip), vehicle: water",91 % of control
C[N+]1(C)C2CCC1[C@H](C(=O)[O-])[C@@H](O)C2 (some centres undefined),T/C,[3],103 % of control
same,T/C,[4],93 % of control
same,T/C,[5],98 % of control
CC(C)(C)C1COP(=O)(Oc2ccccc2)OC1 (centres undefined),T/C,[6],91 % of control
same,T/C,[7],94 % of control
Oc1c(Cl)cc(Cl)cc1Sc1cc(Cl)cc(Cl)c1O,T/C,"dose: 100.0 mg/kg/injection, schedule: Q04DX002 (ip), vehicle: saline",114 % of control
same,T/C,"dose: 200.0 mg/kg/injection, schedule: Q04DX002 (ip), vehicle: saline",100 % of control
same,T/C,"dose: 400.0 mg/kg/injection, schedule: Q04DX002 (ip), vehicle: saline",114 % of control
C/C=C/CNc1ccc(C)cc1,T/C,"dose: 25.0 mg/kg/injection, schedule: Q01DX009 (ip), vehicle: saline with Tween-80",102 % of control
same,T/C,"dose: 25.0 mg/kg/injection, schedule: Q04DX003 (ip), vehicle: saline with Tween-80",97 % of control
same,T/C,"dose: 50.0 mg/kg/injection, schedule: Q01DX009 (ip), vehicle: saline with Tween-80",97 % of control
same,T/C,"dose: 50.0 mg/kg/injection, schedule: Q04DX003 (ip), vehicle: saline with Tween-80",90 % of control
same,T/C,[8],101 % of control
CCCCC(=O)N/N=C/c1ccc(OC)c(OC)c1,T/C,[3],100 % of control
same,T/C,[4],94 % of control
same,T/C,[5],91 % of control
NC1C2C3CCC(C(C(=O)O)C3C(=O)O)C12 (centres undefined),T/C,[8],89 % of control
same,T/C,"dose: 200.0 mg/kg/injection, schedule: Q04DX003 (ip), vehicle: saline with Tween-80",110 % of control
same,T/C,"dose: 400.0 mg/kg/injection, schedule: Q04DX003 (ip), vehicle: saline with Tween-80",100 % of control
Clc1ccc(C2SCCS2)c(Cl)c1,T/C,[1],105 % of control
same,T/C,[2],108 % of control
same,T/C,"dose: 400.0 mg/kg/injection, schedule: Q01DX009 (ip), vehicle: Klucel (hydroxypropylcellulose) (HPC)",124 % of control
O=NN(CCCl)C(=O)Nc1cc(NC(=O)N(CCCl)N=O)cc(C(=O)O)c1,T/C,"dose: 0.22 mg/kg/injection, schedule: Q01DX009 (ip), vehicle: saline",110 % of control
same,T/C,"dose: 0.34 mg/kg/injection, schedule: Q01DX009 (ip), vehicle: saline",117 % of control
same,T/C,"dose: 0.52 mg/kg/injection, schedule: Q01DX009 (ip), vehicle: saline",290 % of control
same,T/C,"dose: 0.62 mg/kg/injection, schedule: Q01DX001 (ip), vehicle: carboxymethylcellulose (CMC)",112 % of control
same,T/C,"dose: 0.83 mg/kg/injection, schedule: Q04DX003 (ip), vehicle: saline",114 % of control
same,T/C,"dose: 1.25 mg/kg/injection, schedule: Q01DX001 (ip), vehicle: carboxymethylcellulose (CMC)",123 % of control
same,T/C,"dose: 1.25 mg/kg/injection, schedule: Q04DX003 (ip), vehicle: saline",122 % of control
same,T/C,"dose: 1.7 mg/kg/injection, schedule: Q01DX001 (ip), vehicle: saline",155 % of control
same,T/C,"dose: 2.6 mg/kg/injection, schedule: Q01DX001 (ip), vehicle: saline with Tween-80",151 % of control
same,T/C,"dose: 5.0 mg/kg/injection, schedule: Q01DX009 (ip), vehicle: Klucel (hydroxypropylcellulose) (HPC)",93 % of control
same,T/C,"dose: 5.0 mg/kg/injection, schedule: Q01DX009 (ip), vehicle: saline",162 % of control
same,T/C,"dose: 6.6 mg/kg/injection, schedule: Q04DX003 (ip), vehicle: saline",153 % of control
same,T/C,"dose: 9.0 mg/kg/injection, schedule: Q01DX001 (ip), vehicle: saline",152 % of control
same,T/C,"dose: 10.0 mg/kg/injection, schedule: Q01DX009 (ip), vehicle: Klucel (hydroxypropylcellulose) (HPC)",150 % of control and 160 % of control
same,T/C,"dose: 10.0 mg/kg/injection, schedule: Q01DX009 (ip), vehicle: saline",212 % of control
same,T/C,"dose: 12.0 mg/kg/injection, schedule: Q01DX001 (ip), vehicle: saline",150 % of control
same,T/C,"dose: 13.0 mg/kg/injection, schedule: Q04DX003 (ip), vehicle: saline",155 % of control
same,T/C,"dose: 15.0 mg/kg/injection, schedule: Q01DX009 (ip), vehicle: Klucel (hydroxypropylcellulose) (HPC)",150 % of control
same,T/C,"dose: 17.0 mg/kg/injection, schedule: Q01DX001 (ip), vehicle: saline with Tween-80",196 % of control
same,T/C,"dose: 20.0 mg/kg/injection, schedule: Q01DX009 (ip), vehicle: Klucel (hydroxypropylcellulose) (HPC)",195 % of control
same,T/C,"dose: 20.0 mg/kg/injection, schedule: Q01DX009 (ip), vehicle: saline",102 % of control
same,T/C,"dose: 20.0 mg/kg/injection, schedule: Q04DX003 (ip), vehicle: saline",161 % of control
same,T/C,"dose: 26.0 mg/kg/injection, schedule: Q01DX001 (ip), vehicle: saline with Tween-80",155 % of control
same,T/C,"dose: 26.0 mg/kg/injection, schedule: Q01DX001 (ip), vehicle: saline",152 % of control
CCCCOCCOC(=O)C1OC1(C)c1ccccc1 (centres undefined),T/C,"dose: 100.0 mg/kg/injection, schedule: Q04DX002 (ip), vehicle: saline with Tween-80",100 % of control
same,T/C,"dose: 200.0 mg/kg/injection, schedule: Q04DX002 (ip), vehicle: saline with Tween-80",102 % of control
same,T/C,"dose: 400.0 mg/kg/injection, schedule: Q04DX002 (ip), vehicle: saline with Tween-80",106 % of control
CCC[CH2][Pb]([CH2]CCC)([CH2]CCC)[N](C#N)C#N,T/C,"dose: 25.0 mg/kg/injection, schedule: Q04DX002 (sc), vehicle: olive oil, sesame oil, peanut oil",101 % of control
same,T/C,"dose: 50.0 mg/kg/injection, schedule: Q04DX002 (sc), vehicle: olive oil, sesame oil, peanut oil",101 % of control
same,T/C,"dose: 100.0 mg/kg/injection, schedule: Q04DX002 (sc), vehicle: olive oil, sesame oil, peanut oil",96 % of control and 97 % of control
O=C1c2cccc(Cl)c2C(=O)c2c(Cl)cccc21,T/C,"dose: 100.0 mg/kg/injection, schedule: Q04DX002 (ip), vehicle: Klucel (hydroxypropylcellulose) (HPC)",100 % of control and 91 % of control
same,T/C,"dose: 200.0 mg/kg/injection, schedule: Q04DX002 (ip), vehicle: Klucel (hydroxypropylcellulose) (HPC)",94 % of control
same,T/C,"dose: 400.0 mg/kg/injection, schedule: Q04DX002 (ip), vehicle: Klucel (hydroxypropylcellulose) (HPC)",102 % of control and 113 % of control
COc1ccc(CNS(=O)(=O)c2ccc(C)cc2)cc1OC,T/C,[6],96 % of control
same,T/C,[7],110 % of control
same,T/C,"dose: 400.0 mg/kg/injection, schedule: Q01DX001 (ip), vehicle: carboxymethylcellulose (CMC)",116 % of control
CCCCCCCCN1CCCNCC1,T/C,"dose: 6.25 mg/kg/injection, schedule: Q01DX009 (ip), vehicle: saline",96 % of control
same,T/C,"dose: 12.5 mg/kg/injection, schedule: Q01DX009 (ip), vehicle: saline",102 % of control
same,T/C,"dose: 25.0 mg/kg/injection, schedule: Q01DX009 (ip), vehicle: saline",96 % of control
same,T/C,"dose: 25.0 mg/kg/injection, schedule: Q04DX003 (ip), vehicle: saline",121 % of control
same,T/C,"dose: 50.0 mg/kg/injection, schedule: Q04DX003 (ip), vehicle: saline",109 % of control
same,T/C,"dose: 100.0 mg/kg/injection, schedule: Q04DX003 (ip), vehicle: saline",87 % of control

# From PubChem BioAssay AID248 (DTP/NCI, 2004)
